# Reference: US9592307B2, “Compound and photoacoustic imaging contrast medium containing the compound” (CANON KABUSHIKI KAISHA, priority 2012, dated 2017)
# Ends that are not written are not given here.
# Experiments:
# [1] = rat, ICG administered to the blood alone; cited from earlier work
# [2] = Retentivity in blood, Colon 26 tumor-bearing mice; type: in vivo, mouse; conditions: tail vein, 13 nmol dye, 24 hours after administration
# Experimental: In order to examine the retentivity in blood and the tumor accumulation of the compound prepared as described above, M5k-ICG, M10k-ICG, M20k-ICG, M30k-ICG, M40k-ICG, and D20k-ICG2 were administered to tail veins of tumor-bearing mice which had been transplanted a Colon 26 cell line. The amount of administration was specified to be 13 nmol in terms of the amount of dye.
# A blood sample was taken from a mouse 24 hours after administration, and the blood, 1% Triron, and DMSO were mixed at 2:9:9 in a plastic tube. The amount of dye in the blood was quantified by using IVIS (registered trademark) Imaging System 200 Series (produced by Caliper Life Science Inc.) and measuring the fluorescent intensity in the state of the plastic tube. The proportion of the amount of migration of the dye to the blood relative to the amount (dye 13 nmol) of administration (% injected dose: abbreviated to % ID) per unit weight of the blood is shown in Table 8 as the retentivity of the compound in blood (% ID/g). […]
# An intravenous injection of 100 microliters (13 nmol in terms of dye) of M20k-ICGATT into a tumor-bearing mouse model was performed, where a Colon 26 cell was subcutaneously transplanted into the BALB/c Slc-nu/nu mouse. The accumulation in the Colon 26 cell mass and the blood 24 hours after the administration was evaluated by the method described in Example 12.
# [3] = system: Colon 26 mouse colon cancer cells containing artificially introduced HER2 genes; assay: Tumor accumulation of PEG including capture molecule, Colon 26 (HER2) versus Colon 26 (WT) tumors; type: in vivo; conditions: intravenous, 13 nmol in terms of ICG, 24 hours after administration
# Excerpt: In the evaluation of tumor accumulation, female outbred line BALB/c Slc-nu/nu mouse (6 week-old at the time of purchase) (Japan SLC Inc.) was used. The mouse was adapted to an environment in which a diet and drinking water were able to be consumed freely for a week before the mouse was transplanted a tumor, while standard diet and bed were employed. About 1 week before an imaging experiment, 1×10^6 of Colon 26 mouse colon cancer cells (RIKEN) were subcutaneously injected into each of the right shoulder and the right thigh of the mouse and 1×10^6 of Colon 26 mouse colon cancer cells containing artificially introduced HER2 genes were subcutaneously injected into each of the left shoulder and the left thigh of the mouse. All tumors became established until the experiment and the weights of the mice were 17 to 22 g. […] The amount of dye in the cancer tissue was quantified by using IVIS (registered trademark) Imaging System 200 Series (XENOGEN) and measuring the fluorescent intensity of the solution of dye extracted from the tumor tissue and the standard solution for calibration in the state of the plastic tube. […]
# In addition, ratios of the amount of accumulation into the Colon 26 mouse colon cancer cells containing artificially introduced HER2 genes relative to the amount of accumulation into the Colon 26 mouse colon cancer cells were calculated and are summarized in Table 12. […]
Molecule,Time after administration at which photoacoustic signal is reduced to the same level as that of the blood [1],Retentivity in blood [2] [% ID],Colon26 (HER2)/Colon26 (WT) Ratio of amount of tumor accumulation [3]
"CC1(C)C(/C=C/C=C/C=C/C=C2\N(CCCCS(=O)(=O)O)c3ccc4ccccc4c3C2(C)C)=[N+](CCCCS(=O)(=O)[O-])c2ccc3ccccc3c21 [ICG, Indocyanine Green]",several tens of minutes,0.16,
"pe-PEG20: PEG ME-200MA (MW 20,000) modified with ICG and peptide MARSGLGGKGSC (also: conjugated to PEG ME-200MA (20 kDa) together with ICG)",,,0.76
"pe-PEG40: PEG ME-400MA (MW 40,000) modified with ICG and peptide MARSGLGGKGSC (also: conjugated to PEG ME-400MA (40 kDa) together with ICG)",,,0.88
